# Experimental data taken from PubChem BioAssay (NCI).
#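 Protocol summary: plate cells (96-well), add compound at 5 concentrations, incubate 48 h, interpolate endpoints linearly. GI50 is the concentration that inhibits growth by half. TGI: concentration producing complete growth inhibition.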
# Key:
# Assay in all cases: NCI-60 cell line screen, 48 h
# [1] = test system: SF-295 CNS
# [2] = test system: SNB-19 CNS
# [3] = test system: OVCAR-3 ovarian
# [4] = test system: ACHN renal
# [5] = test system: OVCAR-5 ovarian
# [6] = test system: MOLT-4 leukemia
# [7] = test system: HCC-2998 colon
# [8] = test system: SK-OV-3 ovarian
# [9] = test system: MCF7 breast
# [10] = test system: IGROV1 ovarian
# [11] = test system: MALME-3M melanoma
# [12] = test system: NCI-H226 lung
# [13] = test system: NCI-H522 lung
# [14] = test system: MDA-MB-435
# [15] = test system: OVCAR-8 ovarian
# [16] = test system: MDA-MB-231 breast
# [17] = test system: A498 renal
# [18] = test system: A549 NSCLC
# [19] = test system: HCT-116 colon
# [20] = test system: HL-60(TB) leukemia
# [21] = test system: HCT-15 colon
# [22] = test system: SF-268 CNS
# [23] = test system: MDA-MB-468 breast
# [24] = test system: OVCAR-4 ovarian
# [25] = test system: SF-539 CNS
# [26] = test system: SW-620 colon
# [27] = test system: SN12C renal
# [28] = test system: CAKI-1 renal
# [29] = test system: T-47D breast
# [30] = test system: NCI-H23 lung
# [31] = test system: HS 578T breast
# [32] = test system: EKVX NSCLC
# [33] = test system: UO-31 renal
# [34] = test system: SK-MEL-5 melanoma
# [35] = test system: BT-549 breast
# [36] = test system: UACC-257 melanoma
# [37] = test system: CCRF-CEM leukemia
# [38] = test system: U251 CNS
# [39] = test system: COLO 205 colon
# [40] = test system: HT29 colon
# [41] = test system: K-562 leukemia
# [42] = test system: PC-3 prostate
# [43] = test system: UACC-62 melanoma
# [44] = test system: TK-10 renal
# [45] = test system: RPMI-8226 leukemia
# [46] = test system: M14 melanoma
# [47] = test system: SK-MEL-2 melanoma
# [48] = test system: HOP-92 NSCLC
# [49] = test system: RXF 393 renal
# [50] = test system: HOP-62 NSCLC
# [51] = test system: KM12 colon
# [52] = test system: NCI-H460 lung
# [53] = test system: 786-0 renal
# [54] = test system: DU-145 prostate
# [55] = test system: SK-MEL-28 melanoma
# [56] = test system: SR leukemia
# [57] = test system: LOX IMVI melanoma
smiles,measurement,setting,value
O=C1CCC(N2C(=O)c3cccc(NCCOCCOCCOCCC(=O)NCCCC(=O)NC(c4ccc5c(c4)OCO5)c4cc(Cl)c5cccnc5c4O)c3C2=O)C(=O)C1 (centres undefined),GI50,[1],25.4 µM
same,TGI,[1],> 99 µM
same,GI50,[2],6.32 µM
same,TGI,[2],> 99 µM
same,GI50,[3],3.33 µM
same,TGI,[3],> 99 µM
same,GI50,[4],52.5 µM
same,TGI,[4],> 99 µM
same,GI50,[5],19.5 µM
same,TGI,[5],> 99 µM
same,GI50,[6],4.8 µM
same,TGI,[6],> 99 µM
same,GI50,[7],6.03 µM
same,TGI,[7],30.8 µM
same,GI50,[8],14.6 µM
same,TGI,[8],> 99 µM
same,GI50,[9],3.69 µM
same,TGI,[9],> 99 µM
same,GI50,[10],3.77 µM
same,TGI,[10],> 99 µM
same,GI50,[11],11.8 µM
same,TGI,[11],90.8 µM
same,GI50,[12],14.5 µM
same,TGI,[12],72.2 µM
same,GI50,[13],4.39 µM
same,TGI,[13],41.5 µM
same,GI50,[14],5.8 µM
same,TGI,[14],> 99 µM
same,GI50,[15],11.9 µM
same,TGI,[15],75.1 µM
same,GI50,[16],4.32 µM
same,TGI,[16],29.5 µM
same,GI50,[17],> 99 µM
same,TGI,[17],> 99 µM
same,GI50,[18],41.5 µM
same,TGI,[18],> 99 µM
same,GI50,[19],22.2 µM
same,TGI,[19],> 99 µM
same,GI50,[20],2.41 µM
same,TGI,[20],23.1 µM
same,GI50,[21],37.4 µM
same,TGI,[21],> 99 µM
same,GI50,[22],4.38 µM
same,TGI,[22],> 99 µM
same,GI50,[23],2.56 µM
same,TGI,[23],7.77 µM
same,GI50,[24],14.4 µM
same,TGI,[24],84.3 µM
same,GI50,[25],4.21 µM
same,TGI,[25],26.6 µM
same,GI50,[26],12.6 µM
same,TGI,[26],> 99 µM
same,GI50,[27],5.42 µM
same,TGI,[27],> 99 µM
same,GI50,[28],28.3 µM
same,TGI,[28],> 99 µM
same,GI50,[29],5.06 µM
same,TGI,[29],> 99 µM
same,GI50,[30],12.7 µM
same,TGI,[30],> 99 µM
same,GI50,[31],8.43 µM
same,TGI,[31],> 99 µM
same,GI50,[32],17.2 µM
same,TGI,[32],> 99 µM
same,GI50,[33],33.6 µM
same,TGI,[33],> 99 µM
same,GI50,[34],14 µM
same,TGI,[34],43.8 µM
same,GI50,[35],8.58 µM
same,TGI,[35],42.3 µM
same,GI50,[36],8.95 µM
same,TGI,[36],85.7 µM
same,GI50,[37],3.34 µM
same,TGI,[37],> 99 µM
same,GI50,[38],6.8 µM
same,TGI,[38],> 99 µM
same,GI50,[39],5.04 µM
same,TGI,[39],> 99 µM
same,GI50,[40],26.4 µM
same,TGI,[40],> 99 µM
same,GI50,[41],5.3 µM
same,TGI,[41],> 99 µM
same,GI50,[42],7.83 µM
same,TGI,[42],> 99 µM
same,GI50,[43],3.76 µM
same,TGI,[43],22.7 µM
same,GI50,[44],62.1 µM
same,TGI,[44],> 99 µM
same,GI50,[45],7.12 µM
same,TGI,[45],> 99 µM
same,GI50,[46],14 µM
same,TGI,[46],> 99 µM
same,GI50,[47],4.89 µM
same,TGI,[47],34.6 µM
same,GI50,[48],4.29 µM
same,TGI,[48],52.3 µM
same,GI50,[49],8.56 µM
same,TGI,[49],33.3 µM
same,GI50,[50],7.19 µM
same,TGI,[50],> 99 µM
same,GI50,[51],4.5 µM
same,TGI,[51],> 99 µM
same,GI50,[52],4.81 µM
same,TGI,[52],42.9 µM
same,GI50,[53],29.6 µM
same,TGI,[53],> 99 µM
same,GI50,[54],37.5 µM
same,TGI,[54],> 99 µM
same,GI50,[55],5.95 µM
same,TGI,[55],61 µM
same,GI50,[56],5.26 µM
same,TGI,[56],> 99 µM
same,GI50,[57],4.29 µM
same,TGI,[57],22.2 µM
